Source: US5824653A, “Anthelmintic compositions for equidae” (priority 1994, dated 1998)

How the values were obtained:
Strongylidase [1] = assay: Trial 1: modified critical test, efficacy against Strongylidase in horses; assay type: in vivo; conditions: Trial 1, horses
Description: (§1) The method of evaluating the activity of the formulation was a modified critical test (Lyons et al., 1986) which involved killing the horses 24 hours after treatment.
(§2) Efficacy is the number of worms count dead and removed versus the number of worms count alive and not removed (scolex attached for Anaplocephala perfoliata).
(§3) A trial involving abamectin paste (1 ml per 20 kg of body weight equivalent to 0.2 mg of Abamectin per kg B.W.), praziquantel paste (0.1 to 5 mg of Praziquantel per kg of body weight), and formulations in accordance with examples 1,2,3,4 and 5.
(§4) Eleven groups of ten horses per group were involved in the study. Area of origin of the horses was well known for having internal parasitism problem and specifically tapeworms (Anoplocephala perfoliata) infestation.

Gasterophilus spp. [2] = assay: Trial 1: modified critical test, efficacy against Gasterophilus spp. in horses; assay type: in vivo; conditions: Trial 1, horses
Description: as §1, §2, §3, §4

Parascaris equorum [3] = assay: Trial 1: modified critical test, efficacy against Parascaris equorum in horses; assay type: in vivo; conditions: Trial 1, horses
Description: as §1, §2, §3, §4

Anoplocephala perfoliata [4] = assay: Trial 1: modified critical test, efficacy against Anoplocephala perfoliata in horses; assay type: in vivo; conditions: Trial 1, horses
Description: as §1, §2, §3, §4

Strongylidase [5] = assay: Trial 2: modified critical test, efficacy against Strongylidase in horses; assay type: in vivo; conditions: Trial 2, horses
Description: as §1, §2
(§5) A trial involving Ivermectin drench (1 ml per 10 kg of body weight equivalent to 0.2 mg of Ivermectin per kg B.W.), praziquantel drench (0.5 to 2 mg of praziquantel per kg of body weight), and formulations in accordance with Examples 6, 7 and 8.
(§6) Seven groups of 6 horses per group were involved in the study. Area of origin of the horses was well known for having internal parasitism problem and specifically tapeworms (Anoplocephala perfoliata) infestation.

Gasterophilus spp. [6] = assay: Trial 2: modified critical test, efficacy against Gasterophilus spp. in horses; assay type: in vivo; conditions: Trial 2, horses
Description: as §1, §2, §5, §6

Parascaris equorum [7] = assay: Trial 2: modified critical test, efficacy against Parascaris equorum in horses; assay type: in vivo; conditions: Trial 2, horses
Description: as §1, §2, §5, §6

Anoplocephala perfoliata [8] = assay: Trial 2: modified critical test, efficacy against Anoplocephala perfoliata in horses; assay type: in vivo; conditions: Trial 2, horses
Description: as §1, §2, §5, §6

[9] = Biodisponibility of praziquantel in horses; assay type: in vivo; conditions: paste formula
[10] = cited from earlier work

O=C(C1CCCCC1)N1CC(=O)N2CCc3ccccc3C2C1 (stereo not drawn) [Praziquantel, 2(cyclohexylcarbonyl)-1,2,3,6,7,11b-hexahydro-4H-pyrazino[2,1-a]isoquinolin-4-one]
71%: % Efficacy Anoplocephala perfoliata (Anoplocephala perfoliata [4]; praziquantel 2 mg/kg)
43%: % Efficacy Anoplocephala perfoliata (Anoplocephala perfoliata [8]; praziquantel 1 mg/kg)
0%: % Efficacy Strongylidase (Strongylidase [1]; praziquantel 0.1 mg/kg) | % Efficacy Strongylidase (Strongylidase [1]; praziquantel 0.5 mg/kg) | % Efficacy Strongylidase (Strongylidase [1]; praziquantel 1 mg/kg) | % Efficacy Strongylidase (Strongylidase [1]; praziquantel 2 mg/kg) | % Efficacy Strongylidase (Strongylidase [1]; praziquantel 5 mg/kg) | % Efficacy Gasterophilus spp. (Gasterophilus spp. [2]; praziquantel 0.1 mg/kg) | % Efficacy Gasterophilus spp. (Gasterophilus spp. [2]; praziquantel 0.5 mg/kg) | % Efficacy Gasterophilus spp. (Gasterophilus spp. [2]; praziquantel 1 mg/kg) | % Efficacy Gasterophilus spp. (Gasterophilus spp. [2]; praziquantel 2 mg/kg) | % Efficacy Gasterophilus spp. (Gasterophilus spp. [2]; praziquantel 5 mg/kg) | % Efficacy Parascaris equorum (Parascaris equorum [3]; praziquantel 0.1 mg/kg) | % Efficacy Parascaris equorum (Parascaris equorum [3]; praziquantel 0.5 mg/kg) | % Efficacy Parascaris equorum (Parascaris equorum [3]; praziquantel 1 mg/kg) | % Efficacy Parascaris equorum (Parascaris equorum [3]; praziquantel 2 mg/kg) | % Efficacy Parascaris equorum (Parascaris equorum [3]; praziquantel 5 mg/kg) | % Efficacy Anoplocephala perfoliata (Anoplocephala perfoliata [4]; praziquantel 0.1 mg/kg) | % Efficacy Strongylidase (Strongylidase [5]; praziquantel 0.5 mg/kg) | % Efficacy Strongylidase (Strongylidase [5]; praziquantel 1 mg/kg) | % Efficacy Strongylidase (Strongylidase [5]; praziquantel 2 mg/kg) | % Efficacy Gasterophilus spp. (Gasterophilus spp. [6]; praziquantel 0.5 mg/kg) | % Efficacy Gasterophilus spp. (Gasterophilus spp. [6]; praziquantel 1 mg/kg) | % Efficacy Gasterophilus spp. (Gasterophilus spp. [6]; praziquantel 2 mg/kg) | % Efficacy Parascaris equorum (Parascaris equorum [7]; praziquantel 0.5 mg/kg) | % Efficacy Parascaris equorum (Parascaris equorum [7]; praziquantel 1 mg/kg) | % Efficacy Parascaris equorum (Parascaris equorum [7]; praziquantel 2 mg/kg)
51%: % Efficacy Anoplocephala perfoliata (Anoplocephala perfoliata [4]; praziquantel 1 mg/kg)
33%: % Efficacy Anoplocephala perfoliata (Anoplocephala perfoliata [4]; praziquantel 5 mg/kg)
27%: % Efficacy Anoplocephala perfoliata (Anoplocephala perfoliata [4]; praziquantel 0.5 mg/kg)
59%: % Efficacy Anoplocephala perfoliata (Anoplocephala perfoliata [8]; praziquantel 2 mg/kg)
better biodisponibility: biodisponibility of praziquantel [9]
relatively insoluble: solubility in water [10]
21%: % Efficacy Anoplocephala perfoliata (Anoplocephala perfoliata [8]; praziquantel 0.5 mg/kg)

CC[C@H](C)[C@H]1O[C@]2(CC[C@@H]1C)C[C@@H]1C[C@@H](C/C=C(\C)[C@@H](O[C@H]3C[C@H](OC)[C@@H](O[C@H]4C[C@H](OC)[C@@H](O)[C@H](C)O4)[C@H](C)O3)[C@@H](C)/C=C/C=C3\CO[C@@H]4[C@H](O)C(C)=C[C@@H](C(=O)O1)[C@]34O)O2 [Ivermectin]
0%: % Efficacy Anoplocephala perfoliata (Anoplocephala perfoliata [8]; ivermectin 0.2 mg/kg)
100%: % Efficacy Strongylidase (Strongylidase [5]; ivermectin 0.2 mg/kg) | % Efficacy Gasterophilus spp. (Gasterophilus spp. [6]; ivermectin 0.2 mg/kg) | % Efficacy Parascaris equorum (Parascaris equorum [7]; ivermectin 0.2 mg/kg)

Abamectin
100%: % Efficacy Strongylidase (Strongylidase [1]; abamectin 0.2 mg/kg) | % Efficacy Gasterophilus spp. (Gasterophilus spp. [2]; abamectin 0.2 mg/kg) | % Efficacy Parascaris equorum (Parascaris equorum [3]; abamectin 0.2 mg/kg)
0%: % Efficacy Anoplocephala perfoliata (Anoplocephala perfoliata [4]; abamectin 0.2 mg/kg)
